Patent US10828304B2, “Compositions and methods for white to beige adipogenesis” (University of South Florida, priority 2017, dated 2020)

Assays:
[1] = system: 3T3-L1 cells; assay: MitoTracker Green staining of mitochondria in 3T3-L1 cells; format: cell-based; details: dose of 100 nM
Protocol: (§1) The effect of the Clk1 inhibitor DC677 or DC761 on 3T3-L1 cells was examined. 3T3-L1 cells were incubated with 50 nM TG003 (an inhibitor of Clk1), 100 nM DC677, or 100 nM DC761 for 3 to 5 days. Adipocytes were used as a control. UCP1 expression was determined (results are shown in FIG. 1A and FIG. 2A; RQ is reference quotient). Oil Red O (obtained from Sigma-Aldrich, St. Louis, Mo.) was used to stain triglycerides and lipids, and the levels of Oil Red O were determined by measuring absorbance at 520 nm (results are shown in FIG. 1C and FIG. 2C). MitoTracker™ Green (Thermo Fischer Scientific, Waltham, Mass.) was used to stain mitochondria, and levels were determined by measuring absorbance at 495 nm (results are shown in FIG. 1D and FIG. 2D).
The effect of the Clk1 inhibitor DC677 on 3T3-L1 cells was examined with fluorescence microscopy. 3T3-L1 cells were cultured in a 12-well plate and differentiated by […] (MDI). The cells were then incubated with insulin, TG003, or DC677. On day 8, the cells were stained with MitoTracker™ Green (Thermo Fischer Scientific, Waltham, Mass.). In FIG. 3, the cell treatment is as follows: (1) insulin as a control; (2) 50 nm TG003 added on day 2; (3) 50 nm TG003 added on day 4; (4) 100 nm DC677 added on day 2; (5) 100 nm DC677 added on day 4; and (6) 100 nm DC677 added on day 6.

[2] = system: 3T3-L1 cells; assay: Differentiation of 3T3-L1 cells into beige cells; format: cell-based; details: for differentiation of 3T3-L1 cells into beige cells: 100 nM, 3 to 5 days
Protocol: as §1

[3] = system: UCP1; assay: UCP1 expression in 3T3-L1 cells; format: cell-based; details: 100 nM, 3 to 5 days during terminal differentiation, vs adipocyte control
Protocol: as §1

[4] = system: PGC1α; assay: PGC1α expression in 3T3-L1 cells; format: cell-based; details: 100 nM, 3 to 5 days during terminal differentiation, vs adipocyte control
[5] = system: 3T3-L1 cells; assay: Oil Red O staining of triglycerides and lipids in 3T3-L1 cells; format: cell-based; details: 100 nM, 3 to 5 days during terminal differentiation
Protocol: as §1

[6] = system: Clk1; details: stated as 'may be about'; no test described; cited from earlier work

SMILES	mitochondrial biogenesis, effectiveness compared to TG003 at 50 nM [1]	performance compared with TG003 ([2]; 100 nM DC677 vs 50 nM TG003)	differentiation of 3T3-L1 cells into beige cells [2]	UCP1 expression [3]	PGC1α expression [4]	lipid storage and lipid droplet size [5]	IC50 [6]
O=C1Nc2ccc(Br)cc2/C1=C\c1nc2ccccc2c(=O)n1Cc1ccccc1 [DC677, 3-benzyl-2-[(5-bromo-2-oxo-1,2-dihydro-3H-indol-3-ylidene)methyl]-4(3H)-quinazolinone]	highly effective	performs equally well to TG003	can differentiate into “beige” cells	increased	increased	stored fewer lipids in smaller lipid droplets	–
CC(=O)Nc1cccc(N2C(=O)c3cccc4cc([N+](=O)[O-])cc(c34)C2=O)c1 [DC761, N-[3-(5-nitro-1,3-dioxo-1H-benzo[de]isoquinolin-2(3H)-yl)phenyl]acetamide]	–	–	can differentiate into “beige” cells	increased	increased	stored fewer lipids in smaller lipid droplets	–
